Measurements reported in patent US20060039937A1, “Composition having antioxidant properties” (priority 2003, published 2006).
Values after ≈ are worked out from the molar mass of the structure shown. “Also recorded” adds a separate entry of the source.

What was measured:
[1] = DPPH assay (free-radical scavenging); assay type: biochemical; conditions: for DPPH free-radical scavenging: amount of antioxidant (in mg) needed to inhibit 1 mmol of DPPH; for antioxidative action (DPPH test), in words: comparison with vitamin C; for AE (×10^−3): anti-free-radical efficiency from EC50 and TEC50; for TEC50: reaction time necessary to achieve EC50
Description: In the presence of a free-radical scavenger, the electron is paired, the absorption disappears, and the decoloration proceeds stoichiometrically taking into account the electrons taken up. The absorbance is measured in a photometer, The anti-free-radical property of the substance to be tested is determined by measuring the concentration at which 50% of the 2,2-diphenyl-1-picrylhydrazyl employed has reacted with the free-radical scavenger. This concentration is expressed as EC50, a value which can be considered to be a property of the substance under the given measurement conditions. […] The EC50 value here is a measure of the capacity of the respective compound to scavenge free radicals. The lower the EC50 value, the higher the capacity to scavenge free radicals. […] A further important aspect for the action of the antioxidants is the time in which this EC50 value is reached. This time, measured in minutes, gives the TEC50 value, which allows a conclusion to be drawn on the rate at which these antioxidants scavenge free radicals. The anti-free-radical efficiency (AE) (described in C. Sanchez-Moreno, J. A. Larrauri and F. Saura-Calixto in J. Sci. […] Aliquots of this solution are mixed with various concentrations of the compound to be tested. […] The lower this value, the higher the corresponding antioxidant activity. The reaction time necessary to achieve this value is indicated in the value TEC50 (in minutes). The anti-free-radical efficiency (AE) is obtained from this in accordance with the following relationship: [formula] A higher AE value here indicates a higher activity against free radicals.

[2] = Lipid assay (ABAP-induced oxidation of linoleic acid in SDS micelles); assay type: biochemical; conditions: for Standardised to tocopherol (relative antioxidative efficiency, RAE): % inhibition standardised to tocopherol; for AE/20 min: absorbance change at 236 nm, Reference 0.4567; for % inhibition: inhibition of linoleic acid oxidation versus reference; for Lipid test: comparative experiment, standardised to tocopherol
Description: ABAP, which is water-soluble per se, is dispersed in SDS micelles. Linoleic acid (cis,cis-9,12-octadecadienoic acid) is likewise dispersed in SDS micelles. The free radicals cause the oxidation of linoleic acid to the isomer having conjugated double bonds. The formation of the conjugated double bond can be determined through the increase in the absorbance at 236 nm. The ability of the antioxidant to inhibit the rate of formation is determined relative to the tocopherol standard (in accordance with: Pryor, W. A., Cornicelli, […]., & Wu, M. (1993) A rapid screening test to determine the antioxidant potencies of natural and synthetic antioxidants. J Org Chem, 58, 3521-3532).

[3] = Rancimat assay (oxidation stability of soya oil); conditions: for Protection factor: 0.1% by weight in 4 g of soya oil at 120° and 15 l of air/h
Description: The Rancimat method for determination of the oxidation stability of fats and oils is known from the literature (Läubli M. W., Bruttel P. A.: “Determination of the oxidation stability of fats and oils—comparison between the active oxygen method (AOCS Cd 12-57) and the Rancimat method”, Fat. Sci. Technol. 90; 56-58 (1988); or Metrohm “Application Bulletin” Metrohm, No. 232/1 d, “Determination of the antioxidant activity by the Rancimat method”; handbook: “Rancimat 679”, Metrohm, instrument for the determination of oxidation and thermal stability, use instructions 8.679.1001, Metrohm AG, CH-9100 Herisau (Switzerland)).

[4] = Time dependence of the antioxidative activity (DPPH test after storage); conditions: 1 mol % solution in EtOH:H2O 1:1, storage for 90 days at 40° C.
[5] = Hypoxanthine-xanthine oxidase test (superoxide scavenging, NBT reduction); assay type: biochemical; conditions: value at which 50% of the original superoxide free-radical anion concentration is still present
Description: Superoxide Free-Radical Anion Scavenging Efficiency of ASG I (Hypoxanthine-Xanthine Oxidase Test) Reaction of fresh xanthine oxidase with hypoxanthine in the presence of EDTA in aqueous solution gives superoxide free-radical anions. The free-radical anions are determined spectrophotometrically via the reduction of nitroblue tetrazolium (NBT) to nitroblue diformazan. The reduction is evident from the […] in the absorption band at 560 nm. […] The IC50 is the value at which 50% of the original superoxide free-radical anion concentration is still present. The lower this value, the higher the corresponding antioxidant activity.

[6] = TEAC assay (ABTS radical cation decolorisation); assay type: biochemical; conditions: comparative experiment with starting substances
Description: This free-radical cation has absorption maxima at 645 nm, 734 nm and 815 nm. The addition of an antioxidant to the ABTS free-radical cation results in reduction to ABTS. The magnitude of this conversion depends on the activity and concentration of the antioxidant and on the duration of the reaction. The reduction is evident from the decrease in absorbance, and the percentage of reduced ABTS is determined as a function of concentration and time and calculated relative to the reactivity of trolox (TEAC). […] This method can be used for the determination of antioxidants which are soluble in water or organic solvents (according to: Re, […]., Yang, M., & Rice, E. C. (1999) Antioxidant activity applying an improved ABTS radical cation decolorisation assay. Free Radical Biology and Medicine, 26, 1231-1237). The absorbance values measured after six minutes are used. The percentage of reduced ABTS is plotted against the concentration of the active ingredient (ASG I from Example 1 or trolox), and the slope of the lines is determined. In order to determine the TEAC value of ASG I, […].

[7] = Storage stability / hydrolysis of ASG I in EtOH:H2O solution; assay type: physicochemical
Description: The reducing action of each substance (DPPH test) as a function of time is investigated and expressed as the amount of substance in mg required to inhibit 1 mmol of the DPPH free radical (FIG. 1).
Under storage conditions (90 days at 40° C., 1 mol-percent solution in EtOH:H2O), only 50% of the initial concentration of ASG I is retained after 30 days.

tyrosinase = assay: Tyrosinase activity test with substrate L-tyrosine; assay type: biochemical; conditions: tyrosinase 10 units, L-tyrosine 4 mM, 37° C., 1 hour, OD 450 nm
Description: Tyrosinase is the key enzyme in the synthesis of melanin. Substances which inhibit tyrosinase activity are therefore suitable as skin-lightening active ingredients. The action is also investigated with L-tyrosine as substrate and compared with that of reference substances. The substances and tyrosinase (10 units) are pre-incubated on ice for 10 minutes; tyrosine is then added (final concentration 4 mM), and the plates are incubated at 37° C. for 1 hour. The optical density at each test point is measured at 450 nm against the corresponding control without enzyme.

[8] = no shift in absorbance of the complex induced by N3^−
[9] = test described in Gan, Seib 1998; cited from earlier work

O=C1O[C@H]([C@@H](O)COC(=O)c2ccc(O)c(O)c2)C(O)=C1O [Substance 3, L-ascorbyl 6-O-(3,4-dihydroxy)benzoate]
DPPH free-radical scavenging [1]: 56 mg | antioxidative action (DPPH test), in words [1]: great antioxidative action

Cc1c(C)c2c(c(C)c1O)CCC(C)(CCCC(C)CCCC(C)CCCC(C)C)O2 (centres unmarked) [Tocopherol, reference compound]
AE (×10^−3) [1]: 64.1 ×10^−3 | TEC50 [1]: <60 min | Standardised to tocopherol (relative antioxidative efficiency, RAE) [2]: 1.00 | AE/20 min [2]: 0.0242 | % inhibition [2]: 94.7%

CCCCCCCCCCCCCCCC(=O)OC[C@H](O)[C@H]1OC(=O)C(O)=C1O [Ascorbyl palmitate, 6-ascorbyl palmitate, reference compound]
DPPH free-radical scavenging [1]: 211 mg | Protection factor ([3]; substance added pure): 2.01 | antioxidative action after storage (DPPH test) [4]: lose their antioxidative action

O=C1O[C@H]([C@@H](O)COC(=O)c2cccc(O)c2)C(O)=C1O [Substance 6, L-ascorbyl 6-O-(3-hydroxy)benzoate]
DPPH free-radical scavenging [1]: 193 mg

O=C1O[C@H]([C@@H](O)COC(=O)c2ccc(O)cc2)C(O)=C1O [Substance 4, L-ascorbyl 6-O-(4-hydroxy)benzoate]
DPPH free-radical scavenging [1]: 185 mg | antioxidative action (DPPH test), in words [1]: virtually the same reducing action as vitamin C

Cc1c(C)c2c(c(C)c1O)CCC(C)(C(=O)O)O2 (centres unmarked) [Trolox]
IC50 [5]: 388 µg/mL (≈ 1550 µM)

O=c1c(O)c(-c2ccc(O)c(O)c2)oc2cc(O)cc(O)c12 [3,5,7,3′,4′-Pentahydroxyflavone, reference compound]
AE (×10^−3) [1]: 83 ×10^−3 | TEC50 [1]: 120 min

Cc1c(C)c2c(c(C)c1O)CCC(C)(CCCC(C)CCCC(C)CCCC(C)C)O2 (centres unmarked) [Vitamin E, reference compound]
Protection factor ([3]; substance added pure): 0.94

COc1ccc(C(=O)OC[C@H](O)[C@H]2OC(=O)C(O)=C2O)cc1 [Substance 5, L-ascorbyl 6-O-(4-methoxy)benzoate]
DPPH free-radical scavenging [1]: 161 mg | antioxidative action (DPPH test), in words [1]: virtually the same reducing action as vitamin C

O=C1O[C@H]([C@@H](O)CO)C(O)=C1O [Vitamin C, ascorbic acid, reference compound]
DPPH free-radical scavenging [1]: 102 mg | AE (×10^−3) [1]: 61.72 ×10^−3 | TEC50 [1]: <60 min | TEAC [6]: 1 | Lipid test [2]: 0.09 | IC50 [5]: 25.5 µg/mL (≈ 145 µM) | antioxidative action after storage (DPPH test) [4]: lose their antioxidative action

COc1cc(C(=O)OC[C@H](O)[C@H]2OC(=O)C(O)=C2O)cc(OC)c1O [Substance 2, L-ascorbyl 6-O-(4-hydroxy-3,5-dimethoxy)benzoate]
DPPH free-radical scavenging [1]: 185 mg | antioxidative action (DPPH test), in words [1]: virtually the same reducing action as vitamin C

COc1cccc(C(=O)OC[C@H](O)[C@H]2OC(=O)C(O)=C2O)c1 [Substance 7, L-ascorbyl 6-O-(3-methoxy)benzoate]
DPPH free-radical scavenging [1]: >1000 mg

O=C1O[C@H]([C@@H](O)COC(=O)c2cc(O)c(O)c(O)c2)C(O)=C1O [ASG I, L-ascorbyl 6-gallate]
DPPH free-radical scavenging [1]: 54 mg | AE (×10^−3) [1]: 69.4 ×10^−3 | antioxidative action (DPPH test), in words [1]: significantly greater antioxidative action than vitamin C or derivatives thereof | TEC50 [1]: 180 min | TEAC [6]: 3.65 | Standardised to tocopherol (relative antioxidative efficiency, RAE) [2]: 0.69 | activity relative to tocopherol ([2]; RAE expressed as percent of the activity of tocopherol): 69% | AE/20 min [2]: 0.1594 | Lipid test [2]: 0.69 | % inhibition [2]: 65.1% | IC50 [5]: 9.3 µg/mL (≈ 28.3 µM) | Protection factor ([3]; dissolved in ethanol): 3.07 | Protection factor ([3]; substance added pure): 1.22 | solubility in soya oil ([3]; pure substance in soya oil, Rancimat test): only dissolves partially | antioxidative action after storage (DPPH test) [4]: retained | initial concentration retained ([7]; 1 mol-percent solution in EtOH:H2O, 40° C., after 30 days): 50% | stability, in words ([7]; pure substance versus aqueous solution): stable as the pure substance; also recorded: undergo hydrolysis in aqueous solution | IC50 (tyrosinase): 0.109 mM | complex formation with Fe^3+ [8]: strong complex-forming properties | effectiveness as antioxidant, in words [9]: less effective than propyl gallate, but more effective than L-ascorbic acid or L-ascorbyl palmitate

O=C1O[C@H]([C@@H](O)CO)C([O-])=C1OP(=O)([O-])[O-].O=C1O[C@H]([C@@H](O)CO)C([O-])=C1OP(=O)([O-])[O-].[Mg+2].[Mg+2].[Mg+2] [MAP, magnesium ascorbyl phosphate, reference compound]
DPPH free-radical scavenging [1]: >1000 mg | IC50 (tyrosinase): 33.1 mM

O=C(O)c1cc(O)c(O)c(O)c1 [Gallic acid, reference compound]
TEAC [6]: 2.76 | Lipid test [2]: 0.37
